Laboratory results taken from patent US20230416247A1, “DRUG-LIKE MOLECULES AND METHODS FOR THE THERAPEUTIC TARGETING OF MICRORNA-21” (University of Washington, priority 2020, published 2023).
Entries after “also recorded” stand apart in the source; their conditions may differ.

How the values were obtained:
[1] = test system: pancreatic (ASPC1) cancer cell line; experiment: MTS proliferation assay, ASPC1; assay type: cell-based, human; details: for viability (anti-proliferative activity), MTS: as a function of time, triplicate
From the text: FIGS. 10A-10F compare anti-proliferative activity of 10 nmoles of compounds −0045 and −0052 against gastric (AGS) (FIGS. 10B and 10C, respectively) and pancreatic (ASPC1) (FIGS. 10E and 10F, respectively) cancer cell lines, as measured as a function of time and compared to palbociclib (−000) (FIGS. 10A-AGS; and 10D-ASPC1) using standard MTS assays in the indicated cell lines; results were in triplicate with reported experimental uncertainty.
FIGS. 11A-11F compare anti-proliferative activity of 5 nmoles of compounds −0045 and −0052 against gastric (AGS) (FIGS. 11B and 11C, respectively) and pancreatic (ASPC1) (FIGS. 11E and 11F, respectively) cancer cell lines, as measured as a function of time and compared to palbociclib (−000) (FIGS. 11A-AGS; and 11D-ASPC1), using standard MTS assays in the indicated cell lines; results were in triplicate with reported experimental uncertainty.
The anti-proliferative activity of compounds −0045 and −0052 in two cell lines characterized by high levels of miR-21 (gastric adenocarcinoma (AGS) and pancreatic (ASPC1) cancer origin) was determined. These experiments were conducted in a double-blind format, without knowledge of the identity or binding activity of the compounds, to avoid any unintentional bias. […] Viability in the presence of both palbociclib and compound −0052 is decreased after approximately 72-96 hrs to a statistically significant extent (data points marked with asterisks are statistically significant).
Cell line maintenance. Using the Cancer Cell Line Encyclopedia (CCLE), in-house cancer cell lines were screened to identify cancer and tissue types with varying levels of miR-21 expression. Experiments were performed using the human-derived cell lines AGS (gastric cancer) and AsPC-1 (pancreatic cancer). Cell lines were obtained from the American Type Culture Collection and maintained per instructions from the supplier. AGS were cultured in F12K medium supplemented with 10% FBS. AsPC-1 were cultured in RPMI, with 10% FBS added. All cells were kept at 37° C. in a humidified atmosphere of 5% CO2 and underwent regular mycoplasma testing. All experiments were conducted when cells were 70-80% confluent.
Proliferation assay. The impact of the compound on cellular proliferation was assessed, with 5,000 cells in each cell line seeded in replicates of 6 in a 96 well plate and treated with DMSO or with compounds. After 48 hours, cells were treated with the MTS reagent and optical density was read to generate dose-response curves.

[2] = test system: pre-miR-21 processing by Dicer-TRBP; experiment: Dicer/TRBP in vitro processing of pre-miR-21; assay type: biochemical, human; details: for inhibition of Dicer processing: pre-miR-21 compared with pre-Let7
Procedure: In order to further assess the biochemical activity of our compounds, processing of pre-miR-21 and pre-Let7 by Dicer-TRBP in vitro was compared. FIGS. 9A and 9B show selective response in the rate of processing under early phase reaction conditions, before significant product builds up, for pre-miR21 compared to pre-Let7.
The results are specific to the initial rates (0.25-5 min) of the reaction. […] This is inevitable because Dicer binds the product tightly. This assay and method of inhibiting miR-21 synthesis is different than typical enzymatic assays. First, the small molecule is targeting the substrate of the enzymatic assay. High affinity compounds that change the structure of the substrate may reduce processing but might not inhibit processing completely. Rather, changes in the specificity constant (kcat/Km), are a better measure of small molecule inhibition than traditional Ki's.
Dicer/TRBP. The Dicer/TRBP enzyme complex was expressed and purified using published methods and stored at −80° C. in 20 μL aliquots until needed. Briefly, the gene encoding human full-length Dicer was inserted into a modified pFastBac1 vector (Invitrogen), which has an N-terminal glutathione-S-transferase (GST) tag. The GST fusion proteins were expressed in HiFive insect cells following standard procedures and isolated by glutathione affinity chromatography using buffer A (20 mM Tris-HCl pH 8.0, 150 mM NaCl, 2 mM DTT). After on-column cleavage by Tobacco Etch Virus (TEV) protease overnight, the proteins were eluted, concentrated and loaded onto Superdex 200 GL column equilibrated in buffer A. Sequences coding for human full-length TRBP2 were cloned into a modified pET28a vector with an N-terminal GB1 tag. The clones were transformed into Rosetta 2 cells and the transformants were grown in LB media at 37° C. until the cells reached a density corresponding to an OD reading of 0.8 at 600 nm. Protein expression was induced by addition of 0.2 mM IPTG at 18° C. for 20 hours. The cells were harvested, pelleted and resuspended in 20 mM Tris-HCl pH 8.0, 500 mM NaCl, mM imidazole, with 5 mM β-ME. […]

SMILES	viability (anti-proliferative activity), MTS ([1]; ASPC1, 5 nmoles of compound)	viability (anti-proliferative activity), MTS ([1]; ASPC1, 10 nmoles of compound)	cell killing activity, MTS over 6 days ([1]; ASPC1, both concentrations tested (10 and 5 nmols), double-blind)	inhibition of Dicer processing [2]	pre-miR-21 processing by DICER/TRBP ([2]; 2 μM compound vs no compound, initial rates)
O=c1[nH]c(Nc2ccc(N3CCNCC3)cn2)nc2cnccc12 [Compound 30]	reduce the viability of both cell lines to a statistically significant extent	reduce the viability of both cell lines to a statistically significant extent	Cell killing activity	specifically inhibit Dicer processing	–
O=c1[nH]c(Nc2ccc(N3CCNCC3)cn2)nc2cccnc12 [Compound 25]	does not	does not	–	specifically inhibit Dicer processing	processing activity is visibly reduced; also recorded: visibly reduced pre-miR-21 processing
